Series [1] relates to rats. The series can be described thus: Penile erection test using rats. The settings on record: oral single dose 10 mg/kg in 0.5% methyl cellulose, observed for 2 hours. It counts as in vivo, rat.
Series [2] can be described thus: Acute oral toxicity test in rats. Conditions: SD, rat, in vivo, 1 g/kg; rats, oral single dose; read-out: lethal dose (LD50) of oral administration.
For series [3], the target named is T1, Phosphodiesterase-5 enzyme (PDE 5) (Homo sapiens, UniProt O76074).
T1 construct: separated by HPLC (Mono Q anion exchange column) with concentration gradient of 0-500 mM NaCl to elute PDE isozymes; from tissue; host or cells: human corpus cavernosal tissue
The series can be described thus: Test for phosphodiesterase-5 (PDE 5) activity. The settings on record: PDE 5 fraction from human corpus cavernosal tissues. It counts as biochemical.

Molecules are shown by their SMILES. Where only a bound is given, the exact number is not on record here.

By IC50 is commonly meant the concentration at which inhibition is half-maximal. Read a low IC50 as greater potency. `CCCNS(=O)(=O)c1ccc(OCC)c(-c2nc3c(CCC)nn(C)c3c(=O)[nH]2)c1` [Example 7, 5-[2-ethoxy-5-(propylamidosulfonyl)phenyl]-1-methyl-3-propyl-1,6-dihydro-7H-pyrazolo(4,3-d)pyrimidin-7-one]: in series [1], the “PEI (penile erection index)” value amounted to 200.0 ± 0.0 and the “genital grooming (number of genital groomings)” value (shortened to “genital grooming”) is given as 6.7 ± 3.8. In addition, in series [2], the LD50 is above 1000 mg/kg. This molecule also had an IC50 in series [3] of 0.0207 µM.

In the case of `CCCc1nn(C)c2c(=O)[nH]c(-c3cc(S(=O)(=O)Nc4ccccc4)ccc3OCC)nc12` [Example 25], in series [1], the “PEI (penile erection index)” value turned out to be 44.4 ± 38.5 and the “genital grooming” value is 2.0 ± 0.0.

`CCCc1nn(CC)c2c(=O)[nH]c(-c3cc(S(=O)(=O)Nc4cccnc4)ccc3OCC)nc12` [Example 40, 5-[2-ethoxy-5-(3-pyridylamidosulfonyl)phenyl]-1-ethyl-3-propyl-1,6-dihydro-7H-pyrazolo(4,3-d)pyrimidin-7-one]: in series [1], the “PEI (penile erection index)” value is on record as 177.8 ± 203.7 and the “genital grooming” value was found to be 1.7 ± 1.5. For the same molecule, in series [2], the LD50 was above 1000 mg/kg. In addition, in series [3], the half-inhibitory concentration (IC50) is 0.0087 µM.

As to `CCCc1nn(C)c2c(=O)[nH]c(-c3cc(S(=O)(=O)Nc4ccc(C(C)C)cc4)ccc3OCC)nc12` [Example 31, 5-[2-ethoxy-5-(4-isopropylphenylamidosulfonyl)phenyl]-1-methyl-3-propyl-1,6-dihydro-7H-pyrazolo(4,3-d)pyrimidin-7-one], in series [1], the “PEI (penile erection index)” value is reported as 300.0 ± 0 and the “genital grooming” value amounted to 3.3 ± 0.6. In addition, the LD50 in series [2] was above 1000 mg/kg. Further, the IC50 in series [3] is 0.0306 µM.

In the case of `CCCc1nn(CC)c2c(=O)[nH]c(-c3cc(S(=O)(=O)NC(C)C)ccc3OCC)nc12` [Example 5, 5-[2-ethoxy-5-(isopropylamidosulfonyl)phenyl]-1-ethyl-3-propyl-1,6-dihydro-7H-pyrazolo(4,3-d)pyrimidin-7-one], in series [1], the “PEI (penile erection index)” value came out at 266.7 ± 57.7 and the “genital grooming” value amounted to 3.3 ± 1.2. The LD50 in series [2] is above 1000 mg/kg. Besides, the IC50 in series [3] was 0.0196 µM.

Regarding `CCCc1nn(C)c2c(=O)[nH]c(-c3cc(S(=O)(=O)NC(C)(C)C)ccc3OCC)nc12` [Example 12], in series [1], the “PEI (penile erection index)” value worked out at 22.2 ± 38.5 and the “genital grooming” value turned out to be 0.3 ± 0.6.

As for `CCCc1nn(C)c2c(=O)[nH]c(-c3cc(S(=O)(=O)NC4CC4)ccc3OCC)nc12` [Example 13, 5-[2-ethoxy-5-(cyclopropylamidosulfonyl)phenyl]-1-methyl-3-propyl-1,6-dihydro-7H-pyrazolo(4,3-d)pyrimidin-7-one], in series [1], the “PEI (penile erection index)” value was 300.0 ± 100.0 and the “genital grooming” value was 4.3 ± 1.2. In addition, the LD50 in series [2] was above 1000 mg/kg. In series [3], this molecule showed an IC50 of 0.0217 µM.

For the molecule `CCCc1nn(C)c2c(=O)[nH]c(-c3cc(S(=O)(=O)NCC4CCCO4)ccc3OCC)nc12` (stereo not drawn) [Example 21], in series [1], the “PEI (penile erection index)” value was determined as 44.4 ± 38.5 and the “genital grooming” value was 2.3 ± 1.5.

For `CCCc1nn(C)c2c(=O)[nH]c(-c3cc(S(=O)(=O)Nc4cc(C)cc(C)c4)ccc3OCC)nc12` [Example 32], in series [1], the “PEI (penile erection index)” value turned out to be 66.7 ± 66.7 and the “genital grooming” value is on record as 1.3 ± 1.5.

For `CCCc1nn(C)c2c(=O)[nH]c(-c3cc(S(=O)(=O)NCc4ccccn4)ccc3OCC)nc12` [Example 50], in series [1], the “PEI (penile erection index)” value is 44.3 ± 38.5 and the “genital grooming” value was 1.0 ± 0.0.

With `CCCc1nn(C)c2c(=O)[nH]c(-c3cc(S(=O)(=O)NC(C)C)ccc3OCC)nc12` [Example 1, 5-[2-ethoxy-5-(isopropylamidosulfonyl)phenyl]-1-methyl-3-propyl-1,6-dihydro-7H-pyrazolo(4,3-d)pyrimidin-7-one], in series [1], the “PEI (penile erection index)” value is recorded as 366.7 ± 38.5 and the “genital grooming” value came to 3.0 ± 1.0. Besides, in series [2], the LD50 was above 1000 mg/kg. Further, inhibition in series [3] was half-maximal at 0.00863 µM (IC50).

Regarding `CCCc1nn(CC)c2c(=O)[nH]c(-c3cc(S(=O)(=O)Nc4ccncc4)ccc3OCC)nc12` [Example 36, 5-[2-ethoxy-5-(4-pyridylamidosulfonyl)phenyl]-1-ethyl-3-propyl-1,6-dihydro-7H-pyrazolo(4,3-d)pyrimidin-7-one], in series [1], the “PEI (penile erection index)” value worked out at 200.0 ± 173.2 and the “genital grooming” value came out at 1.3 ± 0.6. Besides, the LD50 in series [2] is above 1000 mg/kg. The same molecule had an IC50 in series [3] of 0.00309 µM.

For `CCCc1nn(C)c2c(=O)[nH]c(-c3cc(S(=O)(=O)NCc4ccncc4)ccc3OCC)nc12` [Example 43], in series [1], the “PEI (penile erection index)” value came out at 11.1 ± 19.3 and the “genital grooming” value worked out at 0.7 ± 0.6.

On to `CCCc1nn(CC)c2c(=O)[nH]c(-c3cc(S(=O)(=O)NCc4ccncc4)ccc3OCC)nc12` [Example 45], for which, in series [1], the “PEI (penile erection index)” value was 22.2 ± 38.5 and the “genital grooming” value is listed as 0.7 ± 1.2.

For the molecule `CCCOc1ccc(S(=O)(=O)NC2CC2)cc1-c1nc2c(CCC)nn(C)c2c(=O)[nH]1` [Example 16], in series [1], the “PEI (penile erection index)” value came out at 100 ± 0 and the “genital grooming” value turned out to be 1.7 ± 0.6.

For `CCCc1nn(C)c2c(=O)[nH]c(-c3cc(S(=O)(=O)Nc4ccc(C)cc4)ccc3OCC)nc12` [Example 27], in series [1], the “PEI (penile erection index)” value came to 66.7 ± 66.7 and the “genital grooming” value is recorded as 2.7 ± 1.2.

Regarding `CCCc1nn(CC)c2c(=O)[nH]c(-c3cc(S(=O)(=O)NC4CC4)ccc3OCC)nc12` [Example 14, 5-[2-ethoxy-5-(cyclopropylamidosulfonyl)phenyl]-1-ethyl-3-propyl-1,6-dihydro-7H-pyrazolo(4,3-d)pyrimidin-7-one], in series [1], the “PEI (penile erection index)” value came out at 233.3 ± 57.7 and the “genital grooming” value came to 3.0 ± 1.0. Besides, the LD50 in series [2] is above 1000 mg/kg. The same molecule gave a half-inhibitory concentration (IC50) in series [3] of 0.0795 µM.

Regarding `CCOc1ccc(S(=O)(=O)NC2CCCCC2)cc1-c1nc2c(CC(C)C)nn(C)c2c(=O)[nH]1` [Example 20], in series [1], the “PEI (penile erection index)” value is given as 266.7 ± 57.7 and the “genital grooming” value turned out to be 2.3 ± 0.6.

As to `CCCc1nn(C)c2c(=O)[nH]c(-c3cc(S(=O)(=O)NC(C)CC)ccc3OCC)nc12` (stereo not drawn) [Example 10, 5-[2-ethoxy-5-(2-butylamidosulfonyl)phenyl]-1-methyl-3-propyl-1,6-dihydro-7H-pyrazolo(4,3-d)pyrimidin-7-one], in series [1], the “PEI (penile erection index)” value is 466.7 ± 305.5 and the “genital grooming” value is 4.0 ± 1.7. For the same molecule, in series [2], the LD50 is above 1000 mg/kg. Moreover, in series [3], the concentration for half-maximal inhibition (IC50) was 0.00378 µM.

Turning to `CCCNS(=O)(=O)c1ccc(OCC)c(-c2nc3c(CCC)nn(CC)c3c(=O)[nH]2)c1` [Example 8, 5-[2-ethoxy-5-(propylamidosulfonyl)phenyl]-1-ethyl-3-propyl-1,6-dihydro-7H-pyrazolo(4,3-d)pyrimidin-7-one], in series [1], the “PEI (penile erection index)” value came out at 200.0 ± 100.0 and the “genital grooming” value is on record as 3.0 ± 1.0. Moreover, the LD50 in series [2] was above 1000 mg/kg. Besides, it took 0.0253 µM to reach half-maximal inhibition in series [3] (IC50).

Take `CCCc1nn(C)c2c(=O)[nH]c(-c3cc(S(=O)(=O)Nc4ccccn4)ccc3OCC)nc12` [Example 42]: in series [1], the “PEI (penile erection index)” value stood at 33.3 ± 57.7 and the “genital grooming” value is listed as 1.3 ± 1.5.

`CCOc1ccc(S(=O)(=O)NC(C)C)cc1-c1nc2c(CC(C)C)nn(C)c2c(=O)[nH]1` [Example 4]: in series [1], the “PEI (penile erection index)” value stood at 133.3 ± 57.7 and the “genital grooming” value worked out at 2.3 ± 1.2.

Regarding `CCCOc1ccc(S(=O)(=O)NCc2ccccc2)cc1-c1nc2c(CCC)nn(C)c2c(=O)[nH]1` [Example 23, 5-[2-propyloxy-5-(benzylamidosulfonyl)phenyl]-1-methyl-3-propyl-1,6-dihydro-7H-pyrazolo(4,3-d)pyrimidin-7-one], in series [1], the “PEI (penile erection index)” value came out at 266.7 ± 57.7 and the “genital grooming” value stood at 3.0 ± 1.0. Also, the LD50 in series [2] is above 1000 mg/kg. Moreover, half-maximal inhibition in series [3] (IC50) required 0.0127 µM.

Take `CCCc1nn(CC)c2c(=O)[nH]c(-c3cc(S(=O)(=O)NCC4CCN(C)C4)ccc3OCC)nc12` (stereo not drawn) [Example 61]: in series [1], the “PEI (penile erection index)” value is given as 25.0 ± 28.9 and the “genital grooming” value stood at 0.8 ± 0.5. Further, inhibition in series [3] was half-maximal at 0.0939 µM (IC50).

As to `CCCc1nn(C)c2c(=O)[nH]c(-c3cc(S(=O)(=O)NC(CC)CC)ccc3OCC)nc12` [Example 11], in series [1], the “PEI (penile erection index)” value is recorded as 100 ± 0.0 and the “genital grooming” value was 2.7 ± 2.1.

With `CCCc1nn(C)c2c(=O)[nH]c(-c3cc(S(=O)(=O)NC4CCC4)ccc3OCC)nc12` [Example 17], in series [1], the “PEI (penile erection index)” value was 66.7 ± 66.7 and the “genital grooming” value was found to be 1.0 ± 1.0.

With `CCOc1ccc(S(=O)(=O)Nc2ccc(C(C)(C)C)cc2)cc1-c1nc2c(CC(C)C)nn(C)c2c(=O)[nH]1` [Example 30], in series [1], the “PEI (penile erection index)” value was determined as 133.3 ± 57.7 and the “genital grooming” value was 2.3 ± 0.6.

For the molecule `CCCc1nn(C)c2c(=O)[nH]c(-c3cc(S(=O)(=O)NC4CCCC4)ccc3OCC)nc12` [Example 18], in series [1], the “PEI (penile erection index)” value is listed as 44.4 ± 38.5 and the “genital grooming” value turned out to be 1.3 ± 0.6.

In the case of `CCCc1nn(C)c2c(=O)[nH]c(-c3cc(S(=O)(=O)NCCC4CCCN4C)ccc3OCC)nc12` (stereo not drawn) [Example 67], in series [1], the “PEI (penile erection index)” value is 75.0 ± 61.2 and the “genital grooming” value turned out to be 1.8 ± 1.5. Further, the IC50 in series [3] was 0.063 µM.

`CCOc1ccc(S(=O)(=O)NC2CC2)cc1-c1nc2c(CC(C)C)nn(C)c2c(=O)[nH]1` [Example 15]: in series [1], the “PEI (penile erection index)” value amounted to 111.1 ± 101.8 and the “genital grooming” value was determined as 0.7 ± 0.6.

Take `CCCc1nn(C)c2c(=O)[nH]c(-c3cc(S(=O)(=O)NCC4CCCN4C)ccc3OCC)nc12` (stereo not drawn) [Example 55]: in series [1], the “PEI (penile erection index)” value is 350.0 ± 173.2 and the “genital grooming” value was 3.8 ± 1.5. For the same molecule, half-maximal inhibition in series [3] (IC50) required 0.103 µM.

(Values after patent US6583147B1, “Pyrazolopyrimidinone derivatives for the treatment of impotence” (Dong A Pharm Co., Ltd., priority 1998, dated 2003).)
